The target in assay [1] is T1, complex of human CDK4 and cyclin D3 (Homo sapiens, UniProt P11802).
T1 construct: made in house; host or cells: insect cells, co-infected with baculovirus
Kind of assay: Inhibition of CDK4/cyclin D retinoblastoma kinase activity (D-type cyclin is D3). The note with it: superscript a: D-type cyclin is D3; apparent Ki; read-out: Ki CDK 4/D. It counts as biochemical. The protocol:
Cyclin-dependent kinase activity was measured by quantifying the enzyme-catalyzed, time-dependent incorporation of radioactive phosphate from [^32P]ATP or [^33P]ATP into a protein substrate. […] Reactions were initiated with enzyme, incubated at 30° C., and terminated after 20 minutes by the addition of ethylenediaminetetraacetic acid (EDTA) to 250 mM. […] Radioactivity was quantified by exposing the dried membranes to a phosphorimager.
(§1) Apparent Ki values were measured by assaying enzyme activity in the presence of different inhibitor compound concentrations and subtracting the background radioactivity measured in the absence of enzyme. The kinetic parameters (kcat, Km for ATP) were measured for each enzyme under the usual assay conditions by determining the dependence of initial rates on ATP concentration. Inhibition data were fit to an equation for competitive inhibition using Kaleidagraph (Synergy Software), or were fit to an equation for competitive tight-binding inhibition using the software KineTic (BioKin, Ltd.).
Phosphorylated Rb substrate was captured by microfiltration on a nitrocellulose membrane and quantified using a phosphorimager as described above. For measurement of tight-binding inhibitors, the enzyme complex concentration was lowered to 5 nM, and the assay duration was extended to 60 minutes, during which the time-dependence of product formation was linear.

Another assay concerns the target T2, CDK2/cyclin A (Homo sapiens, UniProt P24941).
T2 construct: made in house; host or cells: CDK2: insect cells (baculovirus); cyclin A: E. coli, then limited proteolysis
Description: Inhibition of CDK2/cyclin A retinoblastoma kinase activity. As to conditions: read-out: Ki CDK 2/A. It counts as biochemical. The protocol:
Cyclin-dependent kinase activity was measured by quantifying the enzyme-catalyzed, time-dependent incorporation of radioactive phosphate from [^32P]ATP or [^33P]ATP into a protein substrate. Unless noted otherwise, assays were performed in 96-well plates in a total volume of 50 μL, in the presence of 10 mM HEPES (N-[2-hydroxyethyl]piperazine-N′-[2-ethanesulfonic acid]) (pH 7.4), 10 mM MgCl2, 25 μM adenosine triphosphate (ATP), 1 mg/mL ovalbumin, 5 μg/mL leupeptin, 1 mM dithiothreitol, 10 mM β-glycerophosphate, 0.1 mM sodium vanadate, 1 mM sodium fluoride, 2.5 mM ethylene glycol-bis(β-aminoethyl ether)-N,N,N′N′-tetraacetic acid (EGTA), 2% (v/v) dimethylsulfoxide, and 0.03-0.4 μCi [^32/33P]ATP per reaction. Reactions were initiated with enzyme, incubated at 30° C., and terminated after 20 minutes by the addition of ethylenediaminetetraacetic acid (EDTA) to 250 mM. The phosphorylated substrate was then captured on a nitrocellulose or phosphocellulose membrane using a 96-well filtration manifold, and unincorporated radioactivity was removed by repeated washing with 0.85% phosphoric acid. Radioactivity was quantified by exposing the dried membranes to a phosphorimager.
as §1
CDK2 was purified using published methodology (Rosenblatt et al., “Purification and Crystallization of Human Cyclin-dependent Kinase 2,” J. Mol. Biol., vol. 230, 1993, pp. 1317-1319) from insect cells that had been infected with a baculovirus expression vector. […] Purified, proteolyzed cyclin A was included in the assay at a three- to five-fold molar excess to CDK2. Alternatively, a complex of CDK2 and proteolyzed cyclin A was prepared and purified by gel filtration. The substrate for this assay was the same Rb substrate fragment used for the CDK4 assays, and the methodology of the CDK2/cyclin A and the CDK4/cyclin D3 assays was essentially the same, except that CDK2 was present at 150 nM or 5 nM. Ki values were measured as described above.

Another assay concerns HCT116. Description: Inhibition of cell growth, MTT assay, HCT116. The class given is cell-based, human. The note with it: Homo sapiens, HCT-116. The protocol: (§2) The water-insoluble purple formazan product was then detected spectrophotometrically. […] Plates were incubated for four hours before addition of inhibitor compounds. Different concentrations of inhibitor compounds were added in 0.5% (v/v) dimethylsulfoxide (15 μL/well), and cells were incubated at 37° C. (5% CO2) for four to six days (depending on cell type). At the end of the incubation, MTT was added to a final concentration of 0.2 mg/mL, and cells were incubated for 4 hours more at 37° C. After centrifugation of the plates and removal of medium, the absorbance of the formazan (solubilized in dimethylsulfoxide) was measured at 540 nm.
Background: Tetrazolium assays rely on reduction of a dye to a coloured formazan, in cell work by metabolically active cells.

For the next assay, the system named is U2-OS. Description: Inhibition of cell growth, MTT assay, U2-OS. It counts as cell-based. The note with it: for IC50 / IC90: Homo sapiens, U2OS; for % inhibition of growth in parentheses after >25: concentration not given. As for the experimental part:
as §2

The subject of a further assay is Saos-2. Description: Inhibition of cell growth, MTT assay, Saos-2. The class given is cell-based. The note with it: Homo sapiens; Saos-2, MTT assay. The protocol: as §2

Where two headings read alike, the source gives them in different places.

T1 sequence (P11802 whole entry): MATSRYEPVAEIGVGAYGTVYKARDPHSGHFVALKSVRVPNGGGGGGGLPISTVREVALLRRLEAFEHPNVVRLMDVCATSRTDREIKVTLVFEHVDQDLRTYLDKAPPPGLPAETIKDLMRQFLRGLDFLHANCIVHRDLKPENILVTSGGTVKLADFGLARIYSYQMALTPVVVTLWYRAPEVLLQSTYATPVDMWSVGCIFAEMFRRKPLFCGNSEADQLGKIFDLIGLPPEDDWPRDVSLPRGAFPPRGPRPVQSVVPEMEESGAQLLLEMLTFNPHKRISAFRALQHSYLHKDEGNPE
T1 sequence (P30281 whole entry partner): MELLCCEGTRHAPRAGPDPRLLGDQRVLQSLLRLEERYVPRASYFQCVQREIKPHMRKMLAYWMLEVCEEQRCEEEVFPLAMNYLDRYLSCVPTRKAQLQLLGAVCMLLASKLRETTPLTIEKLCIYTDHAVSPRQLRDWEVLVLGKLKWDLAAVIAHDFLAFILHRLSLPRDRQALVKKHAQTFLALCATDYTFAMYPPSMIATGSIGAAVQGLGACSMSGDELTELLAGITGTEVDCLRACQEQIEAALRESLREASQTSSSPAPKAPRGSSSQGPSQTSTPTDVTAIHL

Consider `COc1ccc(Nc2nc(N)c(C(=O)c3ccccc3I)s2)cc1` [C(12), [4-Amino-2-(4-methoxy-phenylamino)-thiazol-5-yl]-(2-iodo-phenyl)-methanone], for which the Ki in assay [1] came out at 27 nM; on CDK2/cyclin A it was 0.67 µM. In addition, the 50% inhibitory concentration (IC50) (usually the concentration at which inhibition is half-maximal) stood at 2 µM in the assay on HCT116, 1.9 µM in the assay on U2-OS and 2.1 µM in the assay with Saos-2. Besides, the concentration for an effect of 90% (IC90) (in general, the point of the concentration-response curve where the effect stands at 90%) was 5 µM in the assay on HCT116, 6 µM in the assay with U2-OS and 4.8 µM in the assay with Saos-2.
Take `Cc1ccsc1C(=O)c1sc(Nc2ccc3nc[nH]c3c2)nc1N` [C(19), [4-Amino-2-(1H-benzoimidazol-6-ylamino)-thiazol-5-yl]-(3-methyl-thiophen-2-yl)-methanone]: the values for the Ki (in assay [1]; on CDK2/cyclin A) were 15.8 nM and 0.277 µM, respectively. For the same molecule, the figures for the IC50 in the assay with HCT116, in the assay on U2-OS and with Saos-2 were 9 µM, 15 µM and 7 µM, respectively. Also, the IC90 in the assay on HCT116 was 23 µM; in the assay on U2-OS, above 25 µM; with Saos-2, 18 µM. Moreover, the “% inhibition of growth in parentheses after >25” value with U2-OS was determined as 77%.
For `Cc1ccc(C(=O)c2sc(Nc3ccc4nc[nH]c4c3)nc2N)c(C)c1` [C(20), [4-Amino-2-(1H-benzoimidazol-6-ylamino)-thiazol-5-yl]-(2,4-dimethyl-phenyl)-methanone], the results for the Ki (in assay [1]; at CDK2/cyclin A) were 22 nM and 0.145 µM, respectively. The half-maximal inhibitory concentration (IC50) came out at 6.1 µM in the assay on HCT116, 6.5 µM in the assay with U2-OS and 4.9 µM in the assay with Saos-2. The IC90 in the assay on HCT116 was 25 µM; in the assay on U2-OS, above 25 µM; in the assay on Saos-2, 13 µM. In the assay on U2-OS, the “% inhibition of growth in parentheses after >25” value is given as “(74%)”.
Consider `Nc1nc(Nc2ccc(N3CCOCC3)cc2)sc1C(=O)c1c(Cl)ccc([N+](=O)[O-])c1Cl` [C(75), [4-Amino-2-(4-morpholin-4-yl-phenylamino)-thiazol-5-yl]-(2,6-dichloro-3-nitro-phenyl)-methanone], for which the Ki in assay [1] came to 23 nM; at CDK2/cyclin A it was 1.08 µM.
Turning to `Cc1c(C(=O)c2sc(Nc3ccc(S(N)(=O)=O)cc3)nc2N)ncn1C` [C(76), 4-[4-Amino-5-(1,5-dimethyl-1H-imidazole-4-carbonyl)-thiazol-2-ylamino]-benzenesulfonamide], the Ki in assay [1] was determined as 2000 nM; at CDK2/cyclin A, 0.507 µM.
`Cc1cc([N+](=O)[O-])sc1C(=O)c1sc(Nc2ccc3nc[nH]c3c2)nc1N` [C(78), [4-Amino-2-(1H-benzoimidazol-6-ylamino)-thiazol-5-yl]-(3-methyl-5-nitro-thiophen-2-yl)-methanone]: the Ki in assay [1] came out at 32 nM; on CDK2/cyclin A, 0.083 µM.
`Nc1nc(Nc2ccc3nc[nH]c3c2)sc1C(=O)c1c(F)cccc1F` [C(79), [4-Amino-2-(1H-benzoimidazol-6-ylamino)-thiazol-5-yl]-(2,6-difluoro-phenyl)-methanone]: the Ki in assay [1] came out at 54 nM; at CDK2/cyclin A it was 0.162 µM.
On to `Cc1cccc(-c2ccccc2)c1C(=O)c1sc(Nc2ccc(N3CCOCC3)cc2)nc1N` [C(83), [4-Amino-2-(4-morpholin-4-yl-phenylamino)-thiazol-5-yl]-(3-methyl-biphenyl-2-yl)-methanone], for which the Ki in assay [1] stood at 1800 nM; at CDK2/cyclin A (μM), 32 µM.
For `Cc1cccc(Br)c1C(=O)c1sc(Nc2ccc(N3CCOCC3)cc2)nc1N` [C(84), [4-Amino-2-(4-morpholin-4-yl-phenylamino)-thiazol-5-yl]-(2-bromo-6-methyl-phenyl)-methanone], the Ki in assay [1] was found to be 53 nM; on CDK2/cyclin A, 1.04 µM.
Consider `Nc1nc(Nc2ccc3nc[nH]c3c2)sc1C(=O)c1c(Cl)ccc([N+](=O)[O-])c1Cl` [C(89), [4-Amino-2-(1H-benzoimidazol-6-ylamino)-thiazol-5-yl]-(2,6-dichloro-3-nitro-phenyl)-methanone], for which the Ki stood at 55 nM in assay [1] and 0.326 µM at CDK2/cyclin A.
Consider `Cc1cc(C(=O)c2sc(Nc3ccc(N4CCN(C)CC4)cc3)nc2N)c(C)s1` [C(90), {4-Amino-2-[4-(4-methyl-piperazin-1-yl)-phenylamino]-thiazol-5-yl}-(2,5-dimethyl-thiophen-3-yl)-methanone], for which the Ki was 27 nM in assay [1] and 0.771 µM on CDK2/cyclin A.
In the case of `Nc1nc(Nc2ccc(S(N)(=O)=O)cc2)sc1C(=O)c1cc(Cl)sc1Cl` [C(92), 4-[4-Amino-5-(2,5-dichloro-thiophene-3-carbonyl)-thiazol-2-ylamino]-benzenesulfonamide], the Ki worked out at 63 nM in assay [1] and 0.0094 µM on CDK2/cyclin A.
Taken in the same sequence, the figures for `Nc1nc(Nc2ccc3nc[nH]c3c2)sc1C(=O)c1cc(Cl)sc1Cl` [C(93), [4-Amino-2-(1H-benzoimidazol-6-ylamino)-thiazol-5-yl]-(2,5-dichloro-thiophen-3-yl)-methanone] were 285 nM and 1.04 µM.
Regarding `CN(CC(=O)OC(C)(C)C)c1ccc(Nc2nc(N)c(C(=O)c3c(F)cccc3F)s2)cc1` [C(103), tert-Butyl({4-[4-Amino-5-(2,6-difluoro-benzoyl)-thiazol-2-ylamino]-phenyl}-methyl-amino)-acetate], the Ki in assay [1] stood at 110 nM; on CDK2/cyclin A it was 0.595 µM.
As to `Cc1ccsc1C(=O)c1sc(Nc2ccc(N3CCN(C(=O)OC(C)(C)C)CC3)cc2)nc1N` [C(104), 4-Amino-2-[4-(1-tert-butoxycarbonyl-piperazine-4-yl)-phenylamino]-thiazol-5-yl-(3-methyl-thiophen-2-yl)-methanone], the results for the Ki (in assay [1]; on CDK2/cyclin A) were 190 nM and 0.73 µM, respectively.
As for `CC(C)(C)OC(=O)N1CCN(c2ccc(Nc3nc(N)c(C(=O)c4c(Cl)cccc4Cl)s3)cc2)CC1` [C(105), 4-Amino-2-[4-(1-tert-butoxycarbonyl-piperazine-4-yl)-phenylamino]-thiazol-5-yl-(2,6-dichlorophenyl)-methanone], the Ki in assay [1] came to 60 nM; on CDK2/cyclin A, 1.06 µM.
Turning to `CC(=O)Nc1ccc(Cl)c(C(=O)c2sc(Nc3ccc(N4CCN(C(=O)OC(C)(C)C)CC4)cc3)nc2N)c1Cl` [C(106)], the figures for the Ki (in assay [1]; at CDK2/cyclin A) were 134 nM and 1.46 µM, respectively.
With `CC(=O)N1CCN(c2ccc(Nc3nc(N)c(C(=O)c4cc(C)sc4C)s3)cc2)CC1` [C(112), 2-[4-(1-Acetyl-piperazin-4-yl)-phenylamino]-4-amino-thiazol-5-yl-(2,5-dimethyl-thiophen-3-yl)-methanone], the Ki in assay [1] was 23 nM; at CDK2/cyclin A it was 0.408 µM.
For `Nc1ccc(Cl)c(C(=O)c2sc(Nc3ccc4nc[nH]c4c3)nc2N)c1Cl` [G, [4-Amino-2-(1H-benzoimidazol-6-ylamino)-thiazol-5-yl]-(3-amino-2,6-dichloro-phenyl)-methanone] the same measures were 23 nM and 0.178 µM.
With `Cc1ccc(C(=O)c2sc(Nc3ccccc3)nc2N)cc1` [I(12)], the Ki worked out at 380 nM in assay [1] and 4.17 µM on CDK2/cyclin A.
For `Nc1nc(Nc2ccc(C(=O)O)cc2)sc1C(=O)c1c(Cl)cccc1Cl` [I(25)] the same measures were 639 nM and 0.28 µM.

(Values after patent US6569878B1, “Substituted 4-amino-thiazol-2-yl compounds as cyclin-dependent kinase inhibitors” (Agouron Pharmaceuticals Inc., priority 1997, dated 2003).)
